We go through 2 compounds from US8765720B2, “Combination therapy for the treatment of multiple myeloma” (Cephalon, Inc., priority 2009, dated 2014).

Series [1] has as its system RPMI8226 cells. The series is described as follows: Apoptotic assay by annexin V and propidium iodide staining. Type of series: cell-based, human. To be noted: 2.5 nM for each drug, 30 hours. As to the method:
To quantify apoptosis in response to drug treatment, RPMI8226 cells (5×10^5 cells per well) were incubated with vehicle or PIs at 37° C. and 5% CO2 for 30 hours. As a positive control, cells were incubated with 250 ng/mL of actinomycin D for 24 or 48 hours. Cells were then washed twice with phosphate-buffered saline, resuspended in binding buffer (100 mM HEPES/NaOH, pH 7.5 containing 1.4 M NaCl and 25 mM CaCl2), and stained with fluorescein isothiocyanate (FITC)-conjugated annexin V and with the fluorescent dye propidium iodide (PrI), according to the manufacturer's protocol (BioVision, Mountain View, Calif.). For each drug treatment, 1×10^5 gated events were recorded. Cells negative for both PI and annexin V staining were considered live; annexin V-positive, PrI-negative cells were considered early apoptotic; annexin V-positive, PrI-positive cells were considered late apoptotic. Flow cytometric analyses were performed using a Beckman Coulter FC500 cytometer with Cytomics CXP software (Beckman Coulter, Fullerton, Calif.).

The nature of another series: in vitro. The conditions noted are these: human. An excerpt:
The human myeloma cell line RPMI8226 was obtained from American Type Culture Collection (Rockville, Md.). The MM1S myeloma cell line was provided by Dr. Steven Rosen (Northwestern University, Chicago, Ill.). Normal peripheral blood mononuclear cells (PBMCs) were isolated by Histopaque® density gradient centrifugation, according to the manufacturer's protocol (Sigma-Aldrich, St. Louis, Mo.). Myeloma cell lines and PBMCs were maintained in RPMI 1640 (Omega Scientific, Tarzana, Calif.) supplemented with 10% fetal bovine serum, 2 mM L-glutamine, 100 IU/mL penicillin, 100 μg/mL streptomycin, and essential amino acids in an atmosphere of 5% carbon dioxide (CO2) at 37° C.
Cells were seeded at 10^5 cells/100 μL/well in 96-well plates and incubated for 24 hours. RPMI8226 and MM1S cells were cultured in the presence of vehicle, COMPOUND 1, bortezomib, melphalan, COMPOUND 1+bortezomib, or COMPOUND 1+melphalan for 48 hours. After the incubation period, cell viability was quantified using the CellTiter 96® AQueous Non-Radioactive Cell Proliferation Assay (Promega, Madison, Wis.). Each well was treated with MTS (3-(4,5-dimethylthiazol-2-yl)-5-(3-carboxymethoxyphenyl)-2-(4-sulfophenyl)-2H-tetrazolium, inner salt) for 1 to 4 hours, after which absorbance was recorded at 490 nm. The quantity of formazan product as measured by absorbance at 490 nm is directly proportional to the number of living cells in culture.
In order for therapy with two or more PIs to be feasible in vivo, the combination must spare non-neoplastic cells. […] A healthy donor's PBMCs were cultured for 48 hours in the presence of COMPOUND 1 alone, bortezomib alone, or both agents together, and cell viability was quantified by MTS assay.

The next series relates to MM1S cells. Description: Cell viability assay (MTS assay), MM1S cells. In kind it is cell-based, human. The conditions noted are these: Homo sapiens, MM1.S, single-agent bortezomib 0.5 nM, 48 hours, read-out: inhibition of cell viability. As to the method: In vitro synergy between COMPOUND 1 and bortezomib or melphalan was assessed using the median effect method of Chou and Talalay (30). Combination indices (CIs) were calculated separately for each combination. […] CIs between 0.9 and 1.1 were considered to indicate additive drug effects (31).

Another series concerns LAGκ-1B tumor. The series is described as follows: Intramuscular LAGκ-1B tumor xenograft model (tumor volume). As to the method: (§1) Six- to 8-week-old male severe combined immunodeficient (SCID) mice were obtained from the Jackson Laboratory (Bar Harbor, Me.) and maintained in a specific pathogen-free area in our animal resources facility. All animal studies were conducted according to protocols approved by the Institutional Animal Care and Use Committee. Animals were anesthetized with ketamine, xylazine, and isoflurane prior to surgery and were euthanized when tumors reached 2 cm in diameter.
(§2) Biopsy tissue was surgically implanted in the hind limbs of anesthetized SCID mice and passaged through succeeding generations (32).
Myeloma tumors (LAGκ-1A or LAGκ-1B) were excised from an anesthetized donor mouse, sectioned into 20 to 40 mm^3 pieces, and surgically implanted into the left superficial gluteal muscle of anesthetized naive SCID mice. Recipient mice received weekly injections of anti-asialo GM1 rabbit serum (Wako Bioproducts, Richmond, Va.) to further suppress immune activity. Mice were blindly assigned to one of the experimental groups, and treatment was initiated 7 to 21 days after tumor implantation. COMPOUND 1 was administered via oral gavage daily (0.5-5.0 mg/kg) or twice weekly (5-10 mg/kg). COMPOUND 1 was also administered twice weekly (W, F) via either IV injection (0.5-3.0 mg/kg) or oral gavage (10 mg/kg), as specified. […] Bortezomib (0.5 mg/kg) was dispensed twice weekly (T, Th) via IV injection. Control treatment consisted of COMPOUND 1 diluent (3.2 mL 5% mannitol and 800 μL propylene glycol) alone.
(§3) As a direct measurement of tumor growth, calipers were used to assess tumor volume weekly, and the formula for an ellipsoid volume was applied ( 4/3π×[width/2]^2×[length/2]).
(§4) Percent inhibition of tumor growth is represented as the tumor volume of the test drug group over the tumor volume of the untreated group (T/C). The optimal value is the minimal T/C ratio that reflects the maximal tumor growth inhibition achieved. The criterion for efficacy for the T/C ratio is ≦42%, according to National Cancer Institute (NCI) standard criteria (44).
(§5) Efficacy of drug therapy against tumors was standardized to the time (t) required for the untreated tumor to grow to a determined size based on the greatest difference in time to reach a tumor volume between the control and treatment group. This value can be represented as the growth delay (in days) between treated and control (tt−tc) (44).
(§6) Tumor growth and hIgG levels were analyzed in terms of treatment group means and standard error. Student's t-test was applied to determine the statistical significance of differences between treatment groups. Minimal significance level was P<0.05.

Another series has as its system LAGκ-1A tumor. Description: Intramuscular LAGκ-1A tumor xenograft model (serum hIgG, tumor volume). To be noted: alone or together. The protocol:
as §1, §2
Myeloma tumors (LAGκ-1A or LAGκ-1B) were excised from an anesthetized donor mouse, sectioned into 20 to 40 mm^3 pieces, and surgically implanted into the left superficial gluteal muscle of anesthetized naive SCID mice. Recipient mice received weekly injections of anti-asialo GM1 rabbit serum (Wako Bioproducts, Richmond, Va.) to further suppress immune activity. Mice were blindly assigned to one of the experimental groups, and treatment was initiated 7 to 21 days after tumor implantation. COMPOUND 1 was administered via oral gavage daily (0.5-5.0 mg/kg) or twice weekly (5-10 mg/kg). COMPOUND 1 was also administered twice weekly (W, F) via either IV injection (0.5-3.0 mg/kg) or oral gavage (10 mg/kg), as specified. Melphalan (1 mg/kg) was provided via weekly intraperitoneal (IP) injections (W). Bortezomib (0.5 mg/kg) was dispensed twice weekly (T, Th) via IV injection. Control treatment consisted of COMPOUND 1 diluent (3.2 mL 5% mannitol and 800 μL propylene glycol) alone.
Mice bearing MM tumors underwent weekly retro-orbital bleeds. Resulting samples were spun at 13,000 rpm for 30 minutes to isolate serum. The hIgG ELISA kit (Bethyl Laboratories, Montgomery, Tex.) was used according to the manufacturer's specifications. Absorbance at 450 nm with a reference wavelength of 550 nm was determined on a μQuant microplate spectrophotometer with KC Junior software (Bio-Tek Instruments, Winooski, Vt.). Data graphed are the mean±SEM with n=7-8 mice/group.
as §3, §4, §5, §6

The subject of series [2] is apoptosis-inducing factor (AIF). The series is described as follows: Immunohistochemical analysis of AIF expression in LAGκ-1B tumors. To be noted: COMPOUND 1 1 mg/kg, bortezomib 0.5 mg/kg, alone or both; tumors excised post-treatment. In kind it is in vivo, SCID mice. As to the method: LAGκ-1B tumors were fixed in 4% paraformaldehyde and cut into 5 μm sections. Briefly, sections were blocked with Tris-buffered saline with 0.05% Tween-20 (TBST) and 3% BSA for 1 hour at room temperature and then incubated overnight with a rabbit antibody against AIF (Sigma, St. Louis, Mo.). The sections were washed three times with TBST and treated with horse radish […] anti-rabbit antibody (KPL, Gaithersburg, Md.) diluted 1:500 in TBST at room temperature for 2 hours. The slides were washed three times in TBST and placed in 3-amino-9-ethylcarbazole (AEC) buffer for 5 minutes, and color was detected using an AEC kit (Dako, Glostrup, Denmark). Staining was documented using an Olympus BX51 microscope (Olympus Imaging America Inc., Center Valley, Pa.) and analyzed by Microsuite Biological Suite program (Olympus BX51).

A further series has as its system CD138-negative MM cells. To be noted: single agent; cited from earlier work.
The subject of series [3] is RPMI8226 cells. The series is described as follows: Cell viability assay (MTS assay), RPMI8226 cells. In kind it is cell-based, human. To be noted: Homo sapiens, RPMI-8226, 48 h, read-out: decrease in cell viability. The protocol: Combination indices (CIs) were calculated separately for each combination. […] CIs between 0.9 and 1.1 were considered to indicate additive drug effects (31).
(In general: Tetrazolium dyes change colour on reduction, which living cells bring about.)

Where [4] appears, read: bortezomib 0.5 mg/kg IV, COMPOUND 1 1 mg/kg IV, alone or together.

For the compound `CC(C)C[C@H](NC(=O)[C@H](Cc1ccccc1)NC(=O)c1cnccn1)B(O)O` [bortezomib, [(1R)-3-methyl-1-({(2S)-3-phenyl-2-[(pyrazin-2-ylcarbonyl)amino]propanoyl}amino)butyl]boronic acid, reference compound], the “proportion of cells in early apoptosis (PrI−/Annexin V+)” value with RPMI8226 cells [1] is recorded as 17.5 % of cells. Further, the viability at 48 h, 9 nM in the series “in vitro” was roughly 85%. Also, in the series on MM1S cells, the cytotoxicity at 0.0005 µM was roughly 16%. In addition, in the series with LAGκ-1B tumor (setting [4]), the “days to tumor progression” value stood at 35 days and the “survival longer than vehicle-treated mice” value is 20%. Moreover, the “tumor growth vs vehicle” value in the series on LAGκ-1B tumor (bortezomib 0.5 mg/kg IV, COMPOUND 1 1 mg/kg IV, alone or together, combination after 21 days P=0.0014) is given as “only modestly suppresses”. Besides, the “drug-related / toxicity-related deaths” value in the series on LAGκ-1B tumor (mouse, in vivo) is “one death each”. Besides, the “serum hIgG levels and tumor volume vs vehicle” value in the series on LAGκ-1A tumor (COMPOUND 1 1 mg/kg IV, bortezomib 0.5 mg/kg IV, twice weekly) is “only partially inhibited”. The “AIF expression vs vehicle-treated tumors” value in series [2] is on record as “elevated AIF expression”. For the same compound, the “effect on growth of CD138-negative MM cells” value with CD138-negative MM cells is on record as “little effect”.
With `N[C@@H](Cc1ccc(N(CCCl)CCCl)cc1)C(=O)O` [melphalan, 4-[bis(2-chloroethyl)amino]-L-phenylalanine, reference compound], the cytotoxicity at 40 µM in the series on RPMI8226 cells [3] was roughly 30%. Also, in the series with LAGκ-1B tumor (melphalan 3 mg/kg IP weekly, COMPOUND 1 1 mg/kg IV twice weekly, alone or together, three weeks), the tumor volume result was “partially inhibited”. Also, the “serum hIgG levels and tumor volume vs vehicle” value with LAGκ-1A tumor (melphalan 1 mg/kg IP weekly, COMPOUND 1 1 mg/kg IV twice weekly, 3 weeks) is “no effect”.

What is called viability is the share of living cells, or the viability signal relative to a control.
